“And” between values parts separate entries of the source, which are not always exact repeats. Equal values may be shown once.
Columns and labels:
[1] = test system: Plasmopara viticola; assay: Plasmopara viticola/Grape/Leaf Disc Preventative (Grape Downy Mildew); type: in vivo; conditions: foliar, grape vine leaf disks, inoculated 1 day after application, assessed 6-8 days after application, read-out: disease control
Procedure: Plasmopara viticola/Grape/Leaf Disc Preventative (Grape Downy Mildew)
Grape vine leaf disks are placed on water agar in multiwell plates (24-well format) and sprayed with the formulated test compound diluted in water. The leaf disks are inoculated with a spore suspension of the fungus 1 day after application. The inoculated leaf disks are incubated at 19° C. and 80% rh under a light regime of 12 h light/12 h darkness in a climate cabinet and the activity of a compound is assessed as percent disease control compared to untreated when an appropriate level of disease damage appears in untreated check leaf disks (6-8 days after application).

[2] = test system: Phytophthora infestans; assay: whole plant or invertebrate; type: in vivo; conditions: in Solanum lycopersicum, foliar, read-out: disease control

## Cc1ccc(S(=O)(=O)Nc2ccccc2C(=O)Nc2csc(C3CCN(C(=O)Cn4nc(C(F)(F)F)cc4C)CC3)n2)cc1 [I.g.508, N-(2-{1-[2-(5-methyl-3-trifluoromethyl-pyrazol-1-yl)-acetyl]-piperidin-4-yl}-thiazol-4-yl)-2-(toluene-4-sulfonylamino)-benzamide]
[1]
  pest or weed control at 200 ppm: ≥ 80%
[2]
  pest or weed control at 200 ppm: ≥ 80%

## Cc1cc(C(F)(F)F)nn1CC(=O)N1CCC(c2nc(NC(=O)C3CCCc4ccccc43)cs2)CC1 (centres unmarked) [I.g.011, 1,2,3,4-tetrahydro-naphthalene-1-carboxylic acid (2-{1-[2-(5-methyl-3-trifluoromethyl-pyrazol-1-yl)-acetyl]-piperidin-4-yl}-thiazol-4-yl)amide]
[1]
  pest or weed control at 200 ppm: ≥ 80%
[2]
  pest or weed control at 200 ppm: ≥ 80%
other
  melting point: 179 to 181 °C and 179.2 to 181.3 °C

## Cc1cc(C(F)(F)F)nn1CC(=O)N1CCC(c2nc(NC(=O)[C@@H]3CCCc4ccccc43)cs2)CC1 [I.g.001, (R)-1,2,3,4-tetrahydro-naphthalene-1-carboxylic acid (2-{1-[2-(5-methyl-3-trifluoromethyl-pyrazol-1-yl)-acetyl]-piperidin-4-yl}-thiazol-4-yl)amide]
[1]
  pest or weed control at 200 ppm: ≥ 80%
[2]
  pest or weed control at 200 ppm: ≥ 80%
other
  melting point: 175 °C

## Cc1cc(C(F)(F)F)nn1CC(=O)N1CCC(c2nc(NC(=O)c3ccccc3O)cs2)CC1 [I.g.503, 2-hydroxy-N-(2-{1-[2-(5-methyl-3-trifluoromethyl-pyrazol-1-yl)-acetyl]-piperidin-4-yl}-thiazol-4-yl)-benzamide]
[1]
  pest or weed control at 200 ppm: ≥ 80%
[2]
  pest or weed control at 200 ppm: ≥ 80%

## Cc1cc(C(F)(F)F)nn1CC(=O)N1CCC(c2nc(N(C)C(=O)C3CCCc4ccccc43)cs2)CC1 (centres unmarked) [I.h.011, 1,2,3,4-tetrahydro-naphthalene-1-carboxylic acid methyl-(2-{1-[2-(5-methyl-3-trifluoromethyl-pyrazol-1-yl)-acetyl]-piperidin-4-yl}-thiazol-4-yl)-amide]
[2]
  pest or weed control at 200 ppm: ≥ 80%

## Cc1ccc(C)c(CS(=O)(=O)N2CCC(c3nc(NC(=O)c4ccccc4)cs3)CC2)c1 [I.g.246, N-{2-[1-(2,5-Dimethyl-phenylmethanesulfonyl)-piperidin-4-yl]-thiazol-4-yl}-benzamide]
[1]
  pest or weed control at 200 ppm: ≥ 80%
other
  melting point: 173 to 175 °C

## Cc1cc(C(F)(F)F)nn1CC(=O)N1CCC(c2nc(NC(=O)c3c(O)cccc3F)cs2)CC1 [I.g.510, 2-fluoro-6-hydroxy-N-(2-{1-[2-(5-methyl-3-trifluoromethyl-pyrazol-1-yl)-acetyl]-piperidin-4-yl}-thiazol-4-yl)-benzamide]
[1]
  pest or weed control at 200 ppm: ≥ 80%
[2]
  pest or weed control at 200 ppm: ≥ 80%

## Cc1cc(C(F)(F)F)nn1CC(=O)N1CCN(c2nc(NC(=O)c3ccccc3)cs2)CC1 [I.n.021, N-(2-{4-[2-(5-methyl-3-trifluoromethyl-pyrazol-1-yl)-acetyl]-piperazin-1-yl}-thiazol-4-yl)-benzamide]
[1]
  pest or weed control at 200 ppm: ≥ 80%
[2]
  pest or weed control at 200 ppm: ≥ 80%

## Cc1cc(C(F)(F)F)nn1CC(=O)N1CCC(c2nc(NC(=O)c3cccc(Br)c3O)cs2)CC1 [I.g.502, 3-bromo-2-hydroxy-N-(2-{1-[2-(5-methyl-3-trifluoromethyl-pyrazol-1-yl)-acetyl]-piperidin-4-yl}-thiazol-4-yl)-benzamide]
other
  melting point: 193 to 195 °C

## COc1cccc(C(=O)Nc2csc(C3CCN(C(=O)Cn4nc(C(F)(F)F)cc4C)CC3)n2)c1O [I.g.511, 3-methoxy-2-hydroxy-N-(2-{1-[2-(5-methyl-3-trifluoromethyl-pyrazol-1-yl)-acetyl]-piperidin-4-yl}-thiazol-4-yl)-benzamide]
[2]
  pest or weed control at 200 ppm: ≥ 80%

## COc1cccc(O)c1C(=O)Nc1csc(C2CCN(C(=O)Cn3nc(C(F)(F)F)cc3C)CC2)n1 [I.g.509, 2-methoxy-6-hydroxy-N-(2-{1-[2-(5-methyl-3-trifluoromethyl-pyrazol-1-yl)-acetyl]-piperidin-4-yl}-thiazol-4-yl)-benzamide]
[1]
  pest or weed control at 200 ppm: ≥ 80%
[2]
  pest or weed control at 200 ppm: ≥ 80%

## Cc1cc(C(F)(F)F)nn1CC(=O)N1CCC(c2nc(NC(=O)c3cccc(F)c3O)cs2)CC1 [I.g.501, 3-fluoro-2-hydroxy-N-(2-{1-[2-(5-methyl-3-trifluoromethyl-pyrazol-1-yl)-acetyl]-piperidin-4-yl}-thiazol-4-yl)-benzamide]
[1]
  pest or weed control at 200 ppm: ≥ 80%
[2]
  pest or weed control at 200 ppm: ≥ 80%

## Cc1ccc(C)c(CC(=O)N2CCC(c3nc(NC(=O)C4CCCc5ccccc54)cs3)CC2)c1 (centres unmarked) [I.g.136, 1,2,3,4-tetrahydro-naphthalene-1-carboxylic acid (2-{1-[2-(2,5-dimethylphenyl)-acetyl]-piperidin-4-yl}-thiazol-4-yl)-amide]
[2]
  pest or weed control at 200 ppm: ≥ 80%

## Cc1cc(C(F)(F)F)nn1CC(=O)N1CCC(c2nc(NC(=O)OC3CCCc4ccccc43)cs2)CC1 (centres unmarked) [I.g.013, (2-{1-[2-(5-methyl-3-trifluoromethyl-pyrazol-1-yl)-acetyl]-piperidin-4-yl}-thiazol-4-yl)-carbamic acid 1,2,3,4-tetrahydro-naphthalen-1-yl ester]
[1]
  pest or weed control at 200 ppm: ≥ 80%
[2]
  pest or weed control at 200 ppm: ≥ 80%

## Cc1cc(C(F)(F)F)nn1CC(=O)N1CCN(c2nc(NC(=O)C3CCCc4ccccc43)cs2)CC1 (centres unmarked) [I.n.011, 1,2,3,4-Tetrahydro-naphthalene-1-carboxylic acid (2-{4-[2-(5-methyl-3-trifluoromethyl-pyrazol-1-yl)acetyl]-piperazin-1-yl}-thiazol-4-yl)amide]
[1]
  pest or weed control at 200 ppm: ≥ 80%
[2]
  pest or weed control at 200 ppm: ≥ 80%
other
  melting point: 207 to 209 °C

## Cc1ccccc1CC(=O)N1CCC(c2nc(NC(=O)C3CCCc4ccccc43)cs2)CC1 (centres unmarked) [I.g.386, 1,2,3,4-tetrahydro-naphthalene-1-carboxylic acid {2-[1-(2-o-tolyl-acetyl)-piperidin-4-yl]thiazol-4-yl}-amide]
[1]
  pest or weed control at 200 ppm: ≥ 80%
[2]
  pest or weed control at 200 ppm: ≥ 80%
other
  melting point: 174 to 175 °C

## Cc1cc(C(F)(F)F)nn1CC(=O)N1CCC(c2nc(NC(=O)Nc3ccccc3)cs2)CC1 [I.g.024, 1-(2-{1-[2-(5-methyl-3-trifluoromethyl-pyrazol-1-yl)-acetyl]-piperidin-4-yl}-thiazol-4-yl)-3-phenyl-urea]
[1]
  pest or weed control at 200 ppm: ≥ 80%
[2]
  pest or weed control at 200 ppm: ≥ 80%
other
  melting point: 192.6 °C
